Test results from PMC7846792, “Perception of a divergent family of phytocytokines by the Arabidopsis receptor kinase MIK2” (Nature Communications, 2021).
No end group written: not given here.

Test system: A. thaliana seedlings
Experiment: Seedling growth inhibition (fresh weight)
Type: in vivo, Arabidopsis thaliana
Settings: mock mean = 1
Method: Four-day-old seedlings growing on MS plates were transferred individually into separate wells of transparent 48-well tissue culture plates (Greiner Bio-One) containing 500 μL of liquid MS media with/without elicitor addition. The plates were then transferred back to the growth conditions for an additional 10 days before seedlings were blot-dried and weighed.

With GTGPSHSGHGGSS [SCOOP9] the “Seedling fresh weight (Fig3C), relative to mock” value (Col-0, 1 μM, replicate 1) was 0.7762, the “Seedling fresh weight (Fig3C), relative to mock” value (Col-0, 1 μM, replicate 2) was 0.8462 and the “Seedling fresh weight (Fig3C), relative to mock” value (Col-0, 1 μM, replicate 3) was 0.6605. The “Seedling fresh weight (Fig3C), relative to mock” value (Col-0, 1 μM, replicate 4) was 0.7701, the “Seedling fresh weight (Fig3C), relative to mock” value (Col-0, 1 μM, replicate 5) was 0.4809 and the “Seedling fresh weight (Fig3C), relative to mock” value (Col-0, 1 μM, replicate 6) was 0.5418. For the same sequence, the “Seedling fresh weight (Fig3C), relative to mock” value (Col-0, 1 μM, replicate 7) was 0.6179, the “Seedling fresh weight (Fig3C), relative to mock” value (Col-0, 1 μM, replicate 8) was 0.7457 and the “Seedling fresh weight (Fig3C), relative to mock” value (Col-0, 1 μM, replicate 9) was 0.8066. For the same sequence, the “Seedling fresh weight (Fig3C), relative to mock” value (Col-0, 1 μM, replicate 10) was 0.831, the “Seedling fresh weight (Fig3C), relative to mock” value (Col-0, 1 μM, replicate 11) was 0.7549 and the “Seedling fresh weight (Fig3C), relative to mock” value (Col-0, 1 μM, replicate 12) was 0.7275. For the same sequence, the “Seedling fresh weight (Fig3C), relative to mock” value (Col-0, 10 μM, replicate 1) was 0.06065, the “Seedling fresh weight (Fig3C), relative to mock” value (Col-0, 10 μM, replicate 2) was 0.1274 and the “Seedling fresh weight (Fig3C), relative to mock” value (Col-0, 10 μM, replicate 3) was 0.1304. The “Seedling fresh weight (Fig3C), relative to mock” value (Col-0, 10 μM, replicate 4) was 0.1061, the “Seedling fresh weight (Fig3C), relative to mock” value (Col-0, 10 μM, replicate 5) was 0.1395 and the “Seedling fresh weight (Fig3C), relative to mock” value (Col-0, 10 μM, replicate 6) was 0.08795. For the same sequence, the “Seedling fresh weight (Fig3C), relative to mock” value (Col-0, 10 μM, replicate 7) was 0.1759, the “Seedling fresh weight (Fig3C), relative to mock” value (Col-0, 10 μM, replicate 8) was 0.2365 and the “Seedling fresh weight (Fig3C), relative to mock” value (Col-0, 10 μM, replicate 9) was 0.1395. The “Seedling fresh weight (Fig3C), relative to mock” value (Col-0, 10 μM, replicate 10) was 0.2032, the “Seedling fresh weight (Fig3C), relative to mock” value (Col-0, 10 μM, replicate 11) was 0.1789 and the “Seedling fresh weight (Fig3C), relative to mock” value (Col-0, 10 μM, replicate 12) was 0.1425. For the same sequence, the “Seedling fresh weight (Fig3C), relative to mock” value (mik2-1, 1 μM, replicate 1) was 0.8374, the “Seedling fresh weight (Fig3C), relative to mock” value (mik2-1, 1 μM, replicate 2) was 1.059 and the “Seedling fresh weight (Fig3C), relative to mock” value (mik2-1, 1 μM, replicate 3) was 0.8173. For the same sequence, the “Seedling fresh weight (Fig3C), relative to mock” value (mik2-1, 1 μM, replicate 4) was 0.935, the “Seedling fresh weight (Fig3C), relative to mock” value (mik2-1, 1 μM, replicate 5) was 0.9081 and the “Seedling fresh weight (Fig3C), relative to mock” value (mik2-1, 1 μM, replicate 6) was 0.9484. For the same sequence, the “Seedling fresh weight (Fig3C), relative to mock” value (mik2-1, 1 μM, replicate 7) was 1.0157, the “Seedling fresh weight (Fig3C), relative to mock” value (mik2-1, 1 μM, replicate 8) was 1.056 and the “Seedling fresh weight (Fig3C), relative to mock” value (mik2-1, 1 μM, replicate 9) was 0.972. For the same sequence, the “Seedling fresh weight (Fig3C), relative to mock” value (mik2-1, 1 μM, replicate 10) was 1.002, the “Seedling fresh weight (Fig3C), relative to mock” value (mik2-1, 1 μM, replicate 11) was 1.066 and the “Seedling fresh weight (Fig3C), relative to mock” value (mik2-1, 1 μM, replicate 12) was 1.039. For the same sequence, the “Seedling fresh weight (Fig3C), relative to mock” value (mik2-1, 10 μM, replicate 1) was 0.8757, the “Seedling fresh weight (Fig3C), relative to mock” value (mik2-1, 10 μM, replicate 2) was 0.9704 and the “Seedling fresh weight (Fig3C), relative to mock” value (mik2-1, 10 μM, replicate 3) was 1.224. For the same sequence, the “Seedling fresh weight (Fig3C), relative to mock” value (mik2-1, 10 μM, replicate 4) was 0.9062, the “Seedling fresh weight (Fig3C), relative to mock” value (mik2-1, 10 μM, replicate 5) was 0.9941 and the “Seedling fresh weight (Fig3C), relative to mock” value (mik2-1, 10 μM, replicate 6) was 0.8622. The “Seedling fresh weight (Fig3C), relative to mock” value (mik2-1, 10 μM, replicate 7) was 0.9772, the “Seedling fresh weight (Fig3C), relative to mock” value (mik2-1, 10 μM, replicate 8) was 0.9028 and the “Seedling fresh weight (Fig3C), relative to mock” value (mik2-1, 10 μM, replicate 9) was 0.94. For the same sequence, the “Seedling fresh weight (Fig3C), relative to mock” value (mik2-1, 10 μM, replicate 10) was 1.021, the “Seedling fresh weight (Fig3C), relative to mock” value (mik2-1, 10 μM, replicate 11) was 0.9062 and the “Seedling fresh weight (Fig3C), relative to mock” value (mik2-1, 10 μM, replicate 12) was 0.9298.
With PVRSSRSPRSPSF [SCOOP2] the “Seedling fresh weight (Fig3C), relative to mock” value (Col-0, 1 μM, replicate 1) was 1.166, the “Seedling fresh weight (Fig3C), relative to mock” value (Col-0, 1 μM, replicate 2) was 0.8827 and the “Seedling fresh weight (Fig3C), relative to mock” value (Col-0, 1 μM, replicate 3) was 1.02. For the same sequence, the “Seedling fresh weight (Fig3C), relative to mock” value (Col-0, 1 μM, replicate 4) was 1.184, the “Seedling fresh weight (Fig3C), relative to mock” value (Col-0, 1 μM, replicate 5) was 0.971 and the “Seedling fresh weight (Fig3C), relative to mock” value (Col-0, 1 μM, replicate 6) was 0.6909. The “Seedling fresh weight (Fig3C), relative to mock” value (Col-0, 1 μM, replicate 7) was 0.9497, the “Seedling fresh weight (Fig3C), relative to mock” value (Col-0, 1 μM, replicate 8) was 0.9771 and the “Seedling fresh weight (Fig3C), relative to mock” value (Col-0, 1 μM, replicate 9) was 0.9071. For the same sequence, the “Seedling fresh weight (Fig3C), relative to mock” value (Col-0, 1 μM, replicate 10) was 0.9253, the “Seedling fresh weight (Fig3C), relative to mock” value (Col-0, 1 μM, replicate 11) was 0.8736 and the “Seedling fresh weight (Fig3C), relative to mock” value (Col-0, 1 μM, replicate 12) was 0.9892. For the same sequence, the “Seedling fresh weight (Fig3C), relative to mock” value (Col-0, 10 μM, replicate 1) was 0.6187, the “Seedling fresh weight (Fig3C), relative to mock” value (Col-0, 10 μM, replicate 2) was 0.9067 and the “Seedling fresh weight (Fig3C), relative to mock” value (Col-0, 10 μM, replicate 3) was 0.8218. The “Seedling fresh weight (Fig3C), relative to mock” value (Col-0, 10 μM, replicate 4) was 0.6399, the “Seedling fresh weight (Fig3C), relative to mock” value (Col-0, 10 μM, replicate 5) was 0.5307 and the “Seedling fresh weight (Fig3C), relative to mock” value (Col-0, 10 μM, replicate 6) was 0.5914. The “Seedling fresh weight (Fig3C), relative to mock” value (Col-0, 10 μM, replicate 7) was 0.649, the “Seedling fresh weight (Fig3C), relative to mock” value (Col-0, 10 μM, replicate 8) was 0.6005 and the “Seedling fresh weight (Fig3C), relative to mock” value (Col-0, 10 μM, replicate 9) was 0.5337. The “Seedling fresh weight (Fig3C), relative to mock” value (Col-0, 10 μM, replicate 10) was 0.555, the “Seedling fresh weight (Fig3C), relative to mock” value (Col-0, 10 μM, replicate 11) was 0.7005 and the “Seedling fresh weight (Fig3C), relative to mock” value (Col-0, 10 μM, replicate 12) was 0.6793. The “Seedling fresh weight (Fig3C), relative to mock” value (mik2-1, 1 μM, replicate 1) was 0.8038, the “Seedling fresh weight (Fig3C), relative to mock” value (mik2-1, 1 μM, replicate 2) was 0.7937 and the “Seedling fresh weight (Fig3C), relative to mock” value (mik2-1, 1 μM, replicate 3) was 1.093. For the same sequence, the “Seedling fresh weight (Fig3C), relative to mock” value (mik2-1, 1 μM, replicate 4) was 1.0157, the “Seedling fresh weight (Fig3C), relative to mock” value (mik2-1, 1 μM, replicate 5) was 1.096 and the “Seedling fresh weight (Fig3C), relative to mock” value (mik2-1, 1 μM, replicate 6) was 0.8812. For the same sequence, the “Seedling fresh weight (Fig3C), relative to mock” value (mik2-1, 1 μM, replicate 7) was 0.972, the “Seedling fresh weight (Fig3C), relative to mock” value (mik2-1, 1 μM, replicate 8) was 0.898 and the “Seedling fresh weight (Fig3C), relative to mock” value (mik2-1, 1 μM, replicate 9) was 1.0157. The “Seedling fresh weight (Fig3C), relative to mock” value (mik2-1, 1 μM, replicate 10) was 1.002, the “Seedling fresh weight (Fig3C), relative to mock” value (mik2-1, 1 μM, replicate 11) was 1.083 and the “Seedling fresh weight (Fig3C), relative to mock” value (mik2-1, 1 μM, replicate 12) was 1.063. For the same sequence, the “Seedling fresh weight (Fig3C), relative to mock” value (mik2-1, 10 μM, replicate 1) was 1.068, the “Seedling fresh weight (Fig3C), relative to mock” value (mik2-1, 10 μM, replicate 2) was 1.011 and the “Seedling fresh weight (Fig3C), relative to mock” value (mik2-1, 10 μM, replicate 3) was 0.7743. The “Seedling fresh weight (Fig3C), relative to mock” value (mik2-1, 10 μM, replicate 4) was 0.9434, the “Seedling fresh weight (Fig3C), relative to mock” value (mik2-1, 10 μM, replicate 5) was 0.8859 and the “Seedling fresh weight (Fig3C), relative to mock” value (mik2-1, 10 μM, replicate 6) was 0.8014. For the same sequence, the “Seedling fresh weight (Fig3C), relative to mock” value (mik2-1, 10 μM, replicate 7) was 1.0279, the “Seedling fresh weight (Fig3C), relative to mock” value (mik2-1, 10 μM, replicate 8) was 1.092 and the “Seedling fresh weight (Fig3C), relative to mock” value (mik2-1, 10 μM, replicate 9) was 1.001. For the same sequence, the “Seedling fresh weight (Fig3C), relative to mock” value (mik2-1, 10 μM, replicate 10) was 0.9772, the “Seedling fresh weight (Fig3C), relative to mock” value (mik2-1, 10 μM, replicate 11) was 1.058 and the “Seedling fresh weight (Fig3C), relative to mock” value (mik2-1, 10 μM, replicate 12) was 1.106.
